Measurements reported in patent publication US11980596B2 (priority 2017, dated 2024).

System: subjects with MDD at imminent risk for suicide
[1] = esketamine 84 mg, double-blind phase, N = 35

Experimental: The study consisted of a screening evaluation performed within 24 hours (or up to 48 hours upon consultation with the Sponsor's medical monitor) prior to Day 1 dose, immediately followed by a 25-day double-blind treatment phase (Day 1 to 25) with twice a week dosing, and a 56-day follow up phase (Day 26 to Day 81). The study was designed as a POC study and therefore a two-sided 0.20 significance level was used.
Among 68 randomized subjects, 66 were included in the safety analysis set (defined as receiving at least one dose of study medication in the double-blind phase). […] All safety subjects (N=66) were included in the intent-to-treat (ITT) analysis set (defined as receiving at least one dose of study medication during the double-blind phase and having both the baseline and the Day 1, 4-hour postdose evaluation for the MADRS total score). Forty-nine subjects were included in the safety (FU) analysis set (defined as all subjects who have at least 1 visit during the follow up phase).

In the case of `CN[C@]1(c2ccccc2Cl)CCCCC1=O` [esketamine, (S)-2-(2-chlorophenyl)-2-(methylamino)cyclohexanone], the “Discontinued from the double-blind phase due to (treatment-emergent) adverse events” value (84 mg) is reported as 5 subjects, the “Subjects with a serious adverse event” value (84 mg group, follow up phase) is reported as 1 subjects and the “TEAE: dissociation” value (84 mg, double-blind phase) is reported as 31.4%. For the same molecule, the “TEAE: dizziness” value (84 mg, double-blind phase) was 34.3%, the “TEAE: dysgeusia” value (84 mg, double-blind phase) was 31.4% and the “TEAE: headache” value (84 mg, double-blind phase) was 31.4%. For the same molecule, the “TEAE: nausea” value (84 mg, double-blind phase) was 37.1%, the “TEAE: vomiting” value (84 mg, double-blind phase) was 20.0% and the “Withdrawn from double-blind phase: Adverse event” value (esketamine 84 mg, all randomized analysis set, N = 36) was 5 (13.9%) subjects (%). For the same molecule, the “1 or more serious TEAE” value [1] was 4 (11.4%) subjects (%), the “Serious TEAE: Agitation” value [1] was 1 (2.9%) subjects (%) and the “Serious TEAE: Depressive symptom” value [1] was 1 (2.9%) subjects (%). The “Serious TEAE: Psychiatric disorders” value [1] was 4 (11.4%) subjects (%), the “Serious TEAE: Suicidal ideation” value [1] was 2 (5.7%) subjects (%) and the TEAE [1] was 33 (94.3%) subjects (%). The “TEAE Abdominal pain, no. subjects” value [1] was 0, the “TEAE Acne, % of subjects” value [1] was “(5.7%)” and the “TEAE Acne, no. subjects” value [1] was 2. The “TEAE Agitation, % of subjects” value [1] was “(8.6%)”, the “TEAE Agitation, no. subjects” value [1] was 3 and the “TEAE Anxiety, % of subjects” value [1] was “(17.1%)”. The “TEAE Anxiety, no. subjects” value [1] was 6, the “TEAE Blepharospasm, no. subjects” value [1] was 0 and the “TEAE Blood pressure increased, % of subjects” value [1] was “(5.7%)”. The “TEAE Blood pressure increased, no. subjects” value [1] was 2, the “TEAE Constipation, no. subjects” value [1] was 0 and the “TEAE Diarrhea, % of subjects” value [1] was “(8.6%)”. For the same molecule, the “TEAE Diarrhea, no. subjects” value [1] was 3, the “TEAE Diplopia, % of subjects” value [1] was “(5.7%)” and the “TEAE Diplopia, no. subjects” value [1] was 2. The “TEAE Dissociation, % of subjects” value [1] was “(31.4%)”, the “TEAE Dissociation, no. subjects” value [1] was 11 and the “TEAE Dizziness postural, % of subjects” value [1] was “(5.7%)”. The “TEAE Dizziness postural, no. subjects” value [1] was 2, the “TEAE Dizziness, % of subjects” value [1] was “(34.3%)” and the “TEAE Dizziness, no. subjects” value [1] was 12. For the same molecule, the “TEAE Dry mouth, % of subjects” value [1] was “(8.6%)”, the “TEAE Dry mouth, no. subjects” value [1] was 3 and the “TEAE Dysgeusia, % of subjects” value [1] was “(31.4%)”. For the same molecule, the “TEAE Dysgeusia, no. subjects” value [1] was 11, the “TEAE Ear and labyrinth disorders, % of subjects” value [1] was “(25.7%)” and the “TEAE Ear and labyrinth disorders, no. subjects” value [1] was 9. The “TEAE Epistaxis, no. subjects” value [1] was 0, the “TEAE Euphoric mood, % of subjects” value [1] was “(11.4%)” and the “TEAE Euphoric mood, no. subjects” value [1] was 4. For the same molecule, the “TEAE Eye disorders, % of subjects” value [1] was “(20.0%)”, the “TEAE Eye disorders, no. subjects” value [1] was 7 and the “TEAE Fatigue, % of subjects” value [1] was “(5.7%)”. The “TEAE Fatigue, no. subjects” value [1] was 2, the “TEAE Feeling abnormal, % of subjects” value [1] was “(8.6%)” and the “TEAE Feeling abnormal, no. subjects” value [1] was 3. For the same molecule, the “TEAE Feeling cold, % of subjects” value [1] was “(5.7%)”, the “TEAE Feeling cold, no. subjects” value [1] was 2 and the “TEAE Flatulence, % of subjects” value [1] was “(2.9%)”. For the same molecule, the “TEAE Flatulence, no. subjects” value [1] was 1, the “TEAE Gastrointestinal disorders, % of subjects” value [1] was “(54.3%)” and the “TEAE Gastrointestinal disorders, no. subjects” value [1] was 19. The “TEAE General disorders and administration site conditions, % of subjects” value [1] was “(28.6%)”, the “TEAE General disorders and administration site conditions, no. subjects” value [1] was 10 and the “TEAE Headache, % of subjects” value [1] was “(31.4%)”. The “TEAE Headache, no. subjects” value [1] was 11, the “TEAE Hyperacusis, % of subjects” value [1] was “(5.7%)” and the “TEAE Hyperacusis, no. subjects” value [1] was 2. For the same molecule, the “TEAE Hyperhidrosis, % of subjects” value [1] was “(5.7%)”, the “TEAE Hyperhidrosis, no. subjects” value [1] was 2 and the “TEAE Hypoesthesia oral, % of subjects” value [1] was “(5.7%)”. The “TEAE Hypoesthesia oral, no. subjects” value [1] was 2, the “TEAE Hypoesthesia, % of subjects” value [1] was “(8.6%)” and the “TEAE Hypoesthesia, no. subjects” value [1] was 3. For the same molecule, the “TEAE Infections and infestations, % of subjects” value [1] was “(2.9%)”, the “TEAE Infections and infestations, no. subjects” value [1] was 1 and the “TEAE Insomnia, % of subjects” value [1] was “(8.6%)”. For the same molecule, the “TEAE Insomnia, no. subjects” value [1] was 3, the “TEAE Intranasal paranesthesia, no. subjects” value [1] was 0 and the “TEAE Investigations, % of subjects” value [1] was “(14.3%)”. For the same molecule, the “TEAE Investigations, no. subjects” value [1] was 5, the “TEAE Nasal congestion, % of subjects” value [1] was “(2.9%)” and the “TEAE Nasal congestion, no. subjects” value [1] was 1. For the same molecule, the “TEAE Nasal discomfort, % of subjects” value [1] was “(8.6%)”, the “TEAE Nasal discomfort, no. subjects” value [1] was 3 and the “TEAE Nausea, % of subjects” value [1] was “(37.1%)”. For the same molecule, the “TEAE Nausea, no. subjects” value [1] was 13, the “TEAE Nervous system disorders, % of subjects” value [1] was “(71.4%)” and the “TEAE Nervous system disorders, no. subjects” value [1] was 25. For the same molecule, the “TEAE Oropharyngeal pain, % of subjects” value [1] was “(5.7%)”, the “TEAE Oropharyngeal pain, no. subjects” value [1] was 2 and the “TEAE Panic attack, no. subjects” value [1] was 0. The “TEAE Paresthesia oral, % of subjects” value [1] was “(5.7%)”, the “TEAE Paresthesia oral, no. subjects” value [1] was 2 and the “TEAE Paresthesia, % of subjects” value [1] was “(17.1%)”. For the same molecule, the “TEAE Paresthesia, no. subjects” value [1] was 6, the “TEAE Pharyngeal hypoesthesia, % of subjects” value [1] was “(5.7%)” and the “TEAE Pharyngeal hypoesthesia, no. subjects” value [1] was 2. For the same molecule, the “TEAE Pollakiuria, no. subjects” value [1] was 0, the “TEAE Psychiatric disorders, % of subjects” value [1] was “(57.1%)” and the “TEAE Psychiatric disorders, no. subjects” value [1] was 20. The “TEAE Rash, % of subjects” value [1] was “(2.9%)”, the “TEAE Rash, no. subjects” value [1] was 1 and the “TEAE Renal and urinary disorders, % of subjects” value [1] was “(2.9%)”. For the same molecule, the “TEAE Renal and urinary disorders, no. subjects” value [1] was 1, the “TEAE Respiratory, thoracic and mediastinal disorders, % of subjects” value [1] was “(25.7%)” and the “TEAE Respiratory, thoracic and mediastinal disorders, no. subjects” value [1] was 9. The “TEAE Rhinalgia, no. subjects” value [1] was 0, the “TEAE Rhinorrhoea, no. subjects” value [1] was 0 and the “TEAE Sedation, % of subjects” value [1] was “(17.1%)”. For the same molecule, the “TEAE Sedation, no. subjects” value [1] was 6, the “TEAE Skin and subcutaneous tissue disorders, % of subjects” value [1] was “(14.3%)” and the “TEAE Skin and subcutaneous tissue disorders, no. subjects” value [1] was 5. For the same molecule, the “TEAE Somnolence, % of subjects” value [1] was “(11.4%)”, the “TEAE Somnolence, no. subjects” value [1] was 4 and the “TEAE Suicidal ideation, % of subjects” value [1] was “(5.7%)”. For the same molecule, the “TEAE Suicidal ideation, no. subjects” value [1] was 2, the “TEAE Throat irritation, % of subjects” value [1] was “(8.6%)” and the “TEAE Throat irritation, no. subjects” value [1] was 3. The “TEAE Tinnitus, % of subjects” value [1] was “(5.7%)”, the “TEAE Tinnitus, no. subjects” value [1] was 2 and the “TEAE Toothache, no. subjects” value [1] was 0. The “TEAE Upper respiratory tract infection, no. subjects” value [1] was 0, the “TEAE Vertigo, % of subjects” value [1] was “(11.4%)” and the “TEAE Vertigo, no. subjects” value [1] was 4. For the same molecule, the “TEAE Vision blurred, % of subjects” value [1] was “(8.6%)”, the “TEAE Vision blurred, no. subjects” value [1] was 3 and the “TEAE Vomiting, % of subjects” value [1] was “(20.0%)”. For the same molecule, the “TEAE Vomiting, no. subjects” value [1] was 7, the “TEAE Weight increased, % of subjects” value [1] was “(5.7%)” and the “TEAE Weight increased, no. subjects” value [1] was 2. The “TEAE leading to death” value [1] was 0 subjects (%), the “TEAE leading to drug withdrawn” value [1] was 5 (14.3%) subjects (%) and the “TEAE leading to study discontinuation: Aggression” value [1] was 1 (2.9%) subjects (%). For the same molecule, the “TEAE leading to study discontinuation: Agitation” value [1] was 1 (2.9%) subjects (%), the “TEAE leading to study discontinuation: Cardiac disorders” value [1] was 1 (2.9%) subjects (%) and the “TEAE leading to study discontinuation: Dissociative disorder” value [1] was 0 subjects (%). For the same molecule, the “TEAE leading to study discontinuation: Dizziness” value [1] was 1 (2.9%) subjects (%).
